Marks after values point to notes of the source that are not given here.
What was measured:
[1] = system: patients suffering from schizophrenia; experiment: CATIE study: change in total PANSS (LOCF) by drug arm, segmented by OPRP genetic signature status; format: in vivo, human; set-up: key to Mean difference olanzapine vs. named drug, CATIE unsegemented / Mean difference olanzapine vs. named drug, CATIE OPRP+: difference in change in total PANSS score (LOCF); decrease = better response; conditions: for DELTA PANSS % (mean change in PANSS score from baseline to LOCF): more negative = greater improvement; for Mean difference olanzapine vs. named drug, CATIE OPRP+: positive = olanzapine inferior
Description: The CATIE study, a large federally funded clinical trial designed to assess the efficacy of antipsychotics in a real world setting, is a valuable resource for determining the role of genes in baseline psychopathology and drug response (Lieberman et al., 2005; Stroup et al., 2003). […] Additionally, whole genome SNP genotyping was performed for roughly half of the trial participants (Sullivan et al., 2008). Genotype and phenotype data for the CATIE trial were recently made available to qualified researchers through the NIMH Center for Collaborative Genetic Studies on Mental Disorders. The sample consisted of a total of 738 patients. For the present study, the inventors assigned OPRP status to 628 subjects, including 411 subjects of self-reported European ancestry and 217 subjects of self-reported African ancestry. Further details on the patient population are described in the study by Sullivan and coworkers (Sullivan et al., 2008). […] The design of the CATIE study has been described in detail by others (Lieberman et al., 2005; Stroup et al., 2003). […] Instead of entering into Phase II of the trial, subjects who switched from perphenazine entered Phase IB. […] Subjects who failed Phase IB then entered Phase II. A total of 738 subjects consented to provide DNA for genetic study. […] Only retrospective genetic analyses, judged to be exempt from human studies requirements by an IRB, were conducted in the current study. For the genetic analyses presented herein, the inventors combined and evaluated drug response data for both Phase I and Phase IB of the CATIE study. All tested patients were studied using well established clinical endpoints comparing baseline, intermediate, and last observation carried forward (LOCF) for the PANSS scores using CATIE data. LOCF analysis is a commonly used clinical endpoint for clinical trials for neuropsychiatric drugs, with particular changes in PANSS scores being used to indicate clinically significant response (Leucht et al., 2009). Using the clinical data from the CAIE trial, the inventors derived several different metrics used for quantifying response in clinical trials of antipsychotic medications. […] The greater the decrease in PANSS score, the better the clinical response. The most direct measure of clinical response is absolute change in PANSS score. In addition to absolute change, the improvement is often reported as a percentage change from baseline PANSS score. […] To examine the relationship of genotypes to drug response the inventors used the publicly available PLINK software (Purcell et al., 2007; available on the world wide web at pngu.mgh.harvard.edu/purcell/[…] Helix tree (Version 6.4.1; Golden Helix, Bozeman, Mont.). The inventors used Last observation Carry Forward (LOCF) delta PANSS values as a measure of response to antipsychotic treatment. […] The inventors refined the test further by conducting association analysis on using only those subjects that comprised the TT genotype of […]. […] Presence of the TT or TC genotypes of […] in individuals that comprised the TT genotype at […] indicates OPRP positive status. […] As mentioned previously, the mean change in absolute or percent PANSS provides an important measure of efficacy in patients undergoing antipsychotic treatments. Indeed, many pivotal trials in the psychosis field used absolute and/or percentage change in PANSS Score as the primary endpoint (Leucht et al., 2009). […] Therefore, in addition to examining a categorical definition of clinically significant response, the inventors determined the impact of segmentation by OPRP genetic signature status on the quantitative measure of clinical improvement-delta PANSS for LOCF.

[2] = system: patients suffering from schizophrenia; experiment: Diagnostic performance of the OPRP test in the CATIE study for worsening symptoms (Delta PANSS ≧ 0); format: in vivo, human
Description: Several different measures of diagnostic performance can be used for comparing dichotomous outcomes. Two important metrics include percent positive agreement (PPA), a substitute for sensitivity, and percent negative agreement (PNA), a substitute for specificity.

[3] = system: patients suffering from schizophrenia; conditions: population not segmented by OPRP status; negative = greater reduction in PANSS; cited from earlier work
[4] = system: patients suffering from schizophrenia; conditions: vs first generation antipsychotics; Davis et al. (2003); cited from earlier work
[5] = system: patients suffering from schizophrenia; conditions: weighted mean difference in PANSS score (absolute); negative = olanzapine superior; cited from earlier work
[6] = olanzapine-treated OPRP+ group minus named comparator drug OPRP+ group, positive = poorer response to olanzapine
[7] = delta PANSS, negative = olanzapine superior
[8] = olanzapine OPRP positive versus drug OPRP positive

SMILES | Number of individuals with change in total PANSS (LOCF) ≦−10% (responders) ([1]; OPRP Negative) | Number of individuals with change in total PANSS (LOCF) ≧−10% ([1]; OPRP Negative) | Number of individuals with delta PANSS (LOCF) ≦0% ([1]; OPRP Negative) | Number of individuals with delta PANSS (LOCF) ≧0% (worsening symptoms) ([1]; OPRP Negative) | Responders (change in PANSS of ≦−10%) ([1]; OPRP Negative) | Worsening (delta PANSS ≧0%) ([1]; OPRP Negative) | Number of individuals with change in total PANSS (LOCF) ≦−10% (responders) ([1]; OPRP Positive) | Number of individuals with change in total PANSS (LOCF) ≧−10% ([1]; OPRP Positive) | Number of individuals with delta PANSS (LOCF) ≦0% ([1]; OPRP Positive) | Number of individuals with delta PANSS (LOCF) ≧0% (worsening symptoms) ([1]; OPRP Positive) | Responders (change in PANSS of ≦−10%) ([1]; OPRP Positive) | Worsening (delta PANSS ≧0%) ([1]; OPRP Positive) | Non-Worsen (number of subjects) ([2]; OPRP Positive) | Worsen (number of subjects, Delta PANSS ≧ 0) ([2]; OPRP Positive) | Mean difference (95% CI) in delta PANSS [1, 6] | Mean difference olanzapine vs. named drug, CATIE unsegemented [1, 7] | Mean difference olanzapine vs. named drug, CATIE OPRP+ ([1]; delta PANSS) | Effect Size vs. Placebo [3] | Effect Size vs. FGA [4] | Mean difference olanzapine vs. named drug, Meta-analysis [5] | also measured
Cc1cc2c(s1)Nc1ccccc1N=C2N1CCN(C)CC1 [Olanzapine] | 73 | 66 | 113 | 26 | 53%^* | 19%^* | 1 | 25 | 8 | 18 | 4% | 69% | 8 | 18 |  |  |  |  |  |  | DELTA PANSS % (mean change in PANSS score from baseline to LOCF) ([1]; OPRP Negative subjects): −11.6%; DELTA PANSS % (mean change in PANSS score from baseline to LOCF) ([1]; OPRP Positive subjects): 4.3%; DELTA PANSS % (mean change in PANSS score from baseline to LOCF) ([1]; OPRP Positive subjects, listed as olanzapine): +4.3%; CATIE Effect Size ([1]; olanzapine OPRP positive versus olanzapine OPRP negative): 1.0^a; CATIE Effect Size ([1]; olanzapine OPRP positive versus olanzapine OPRP negative, listed as olanzapine): 1.0; Mean difference (95% CI) in delta PANSS ([1]; olanzapine OPRP+ minus olanzapine OPRP−): 15.9 (9.7 to 22.1); Effect size (mean difference / standard deviation) ([1]; olanzapine OPRP+ vs olanzapine OPRP−): 1.0; Non-Worsen (number of subjects) ([2]; OPRP Negative): 113; Worsen (number of subjects, Delta PANSS ≧ 0) ([2]; OPRP Negative): 26
OCCN1CCN(CCCN2c3ccccc3Sc3ccc(Cl)cc32)CC1 [Perphenazine] | 39 | 71 | 65 | 45 | 35%^+ | 41%^+++ | 5 | 7 | 9 | 3 | 42%^^ | 25%^ | 9 | 3 | 12 (2.0 to 22.0) |  |  |  |  |  | 
OCCOCCN1CCN(C2=Nc3ccccc3Sc3ccccc32)CC1 [Quetiapine] | 48 | 99 | 95 | 62 | 33%^+++ | 42%^+++ | 4 | 14 | 9 | 9 | 22% | 50% | 9 | 9 | 5.5 (−4.1 to 15.0) | −6.2 | 5.5 | −0.42 | 0.01 | −3.7 | Mean difference olanzapine vs. named drug, CATIE OPRP− [1, 7]: −8.4; CATIE Effect Size [1, 8]: 0.3^b
Cc1nc2n(c(=O)c1CCN1CCC(c3noc4cc(F)ccc34)CC1)CCCC2 [Risperidone] |  |  |  |  |  |  |  |  |  |  |  |  | 13 | 7 |  |  |  | −0.59 | −0.25 | −1.9 | 
O=C1Cc2cc(CCN3CCN(c4nsc5ccccc45)CC3)c(Cl)cc2N1 [Ziprasidone] | 16 | 53 | 35 | 34 | 23%^++++ | 49%^++++ | 2 | 9 | 7 | 4 | 18% | 36% | 7 | 4 | 4.8 (−2.7 to 12.3) | −4.9 | 4.8 | −0.48 | −0.04 | −8.3 | CATIE Effect Size [1, 8]: 0.2^b
